{"source": "patent US20060030585A1", "about": "“Tricyclic delta-opioid modulators” (priority 2004, published 2006)", "key": {"[1]": {"biological_target": "T1, hMOR (CHO-hMOR cell membranes) (Homo sapiens, UniProt P35372)", "T1 construct": "host or cells: CHO cells expressing hMOR (purchased membranes)", "T1 sequence (P35372 whole entry)": "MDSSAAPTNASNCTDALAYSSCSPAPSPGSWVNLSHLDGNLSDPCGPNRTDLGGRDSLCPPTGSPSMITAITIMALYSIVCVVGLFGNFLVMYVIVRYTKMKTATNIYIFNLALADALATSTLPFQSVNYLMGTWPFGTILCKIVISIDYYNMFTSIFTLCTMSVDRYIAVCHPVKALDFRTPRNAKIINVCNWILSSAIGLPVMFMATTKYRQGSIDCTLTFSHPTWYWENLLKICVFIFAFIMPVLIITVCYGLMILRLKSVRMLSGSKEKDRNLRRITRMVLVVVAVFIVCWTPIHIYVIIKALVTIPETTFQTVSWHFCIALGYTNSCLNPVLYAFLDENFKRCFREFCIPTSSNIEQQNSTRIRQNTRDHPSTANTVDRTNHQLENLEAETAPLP", "experiment": "[35S]GTPγS binding assay in CHO-hMOR cell membranes", "assay_type": "biochemical", "settings": "CHO-hMOR cell membranes, [35S]GTPγS binding; read-out: hMOR GTPγS EC50", "method": "[^35]GTPγS Binding Assays in CHO-hMOR Cell Membranes\nMethods: CHO-hMOR cell membranes were purchased from Receptor Biology, Inc. (Baltimore, Md.). About 10 mg/mL of membrane protein was suspended in 10 mM TRIS-HCl pH 7.2, 2 mM EDTA, 10% sucrose, and the suspension kept on ice. A 1 mL volume of membranes was added to 15 mL cold binding assay buffer containing 50 mM HEPES, pH 7.6, 5 mM MgCl2, 100 mM NaCl, 1 mM DTT and 1 mM EDTA. The membrane suspension was homogenized with a Polytron and centrifuged at 3,000 rpm for 10 min. The supernatant was then centrifuged at 18,000 rpm for 20 min. The pellet was resuspended in 10 mL assay buffer with a Polytron. The membranes were preincubated with wheat germ agglutinin coated SPA beads (Amersham) at 25° C. for 45 min in the assay buffer. The SPA bead (5 mg/mL) coupled membranes (10 μg/mL) were then incubated with 0.5 nM [^35S]GTPγS in the assay buffer. […] A range of concentrations of receptor agonist was used to stimulate [35S]GTPγS binding. Both basal and non-specific binding was tested in the absence of agonist; non-specific binding determination included 10 μM unlabeled GTPγS.\nCompounds were tested for function as antagonists by evaluating their potential to inhibit agonist-stimulated GTPγS binding. Radioactivity was quantified on a Packard TopCount. The following parameters were calculated: [formula] [formula]\nEC50 values were calculated using GraphPad Prism."}, "delta opioid receptor": {"biological_target": "delta opioid receptor (Rattus norvegicus, UniProt P33533)", "sequence (P33533 whole entry)": "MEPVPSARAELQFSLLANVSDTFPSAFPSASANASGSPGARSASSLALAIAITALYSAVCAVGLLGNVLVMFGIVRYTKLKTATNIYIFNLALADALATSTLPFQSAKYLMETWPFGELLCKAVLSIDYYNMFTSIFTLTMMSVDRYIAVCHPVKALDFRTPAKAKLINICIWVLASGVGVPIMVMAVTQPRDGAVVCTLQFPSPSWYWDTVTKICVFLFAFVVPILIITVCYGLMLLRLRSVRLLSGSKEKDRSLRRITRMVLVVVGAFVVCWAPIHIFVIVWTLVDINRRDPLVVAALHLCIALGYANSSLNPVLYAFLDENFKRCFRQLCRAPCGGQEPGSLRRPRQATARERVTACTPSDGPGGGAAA", "experiment": "Rat brain delta opioid receptor binding assay ([3H]DPDPE)", "settings": "Rat delta opioid receptor binding constant; rat forebrain membranes, ~4 nM [3H]DPDPE; read-out: DOR Ki", "how_it_was_run": "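Forebrain membranes from male Sprague Dawley rats in 50 mM Tris HCl pH 7.4 with 5 mM MgCl2, incubated with ~4 nM [3H]DPDPE for 2.5 h at 25° C., then filtered and counted. Single concentrations give % inhibition of specific binding; concentration ranges give Ki.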"}, "mu opioid receptor": {"biological_target": "mu opioid receptor (Rattus norvegicus, UniProt P33535)", "sequence (P33535 whole entry)": "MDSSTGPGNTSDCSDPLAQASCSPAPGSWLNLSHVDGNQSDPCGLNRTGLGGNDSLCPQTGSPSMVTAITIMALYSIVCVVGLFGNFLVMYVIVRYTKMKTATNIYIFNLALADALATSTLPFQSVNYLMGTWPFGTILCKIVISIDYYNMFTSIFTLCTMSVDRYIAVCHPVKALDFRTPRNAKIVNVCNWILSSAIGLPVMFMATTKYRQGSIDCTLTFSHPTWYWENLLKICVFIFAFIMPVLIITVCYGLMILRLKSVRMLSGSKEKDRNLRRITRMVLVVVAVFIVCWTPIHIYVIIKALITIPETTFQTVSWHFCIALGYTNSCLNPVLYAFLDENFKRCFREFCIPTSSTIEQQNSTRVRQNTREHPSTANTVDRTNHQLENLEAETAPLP", "experiment": "Rat brain mu opioid receptor binding assay ([3H]DAMGO)", "settings": "Rat mu opioid receptor binding constant; rat forebrain membranes, ~0.8 nM [3H]DAMGO; read-out: MOR Ki"}, "[2]": {"biological_target": "T2, delta opioid receptor (NG108-15 cell membranes) (Mus musculus, UniProt P32300)", "T2 construct": "NG108-15 cell membranes were purchased from Applied Cell Sciences (Rockville, Md.); host or cells: NG108-15 cell membranes (purchased)", "T2 sequence (P32300 whole entry)": "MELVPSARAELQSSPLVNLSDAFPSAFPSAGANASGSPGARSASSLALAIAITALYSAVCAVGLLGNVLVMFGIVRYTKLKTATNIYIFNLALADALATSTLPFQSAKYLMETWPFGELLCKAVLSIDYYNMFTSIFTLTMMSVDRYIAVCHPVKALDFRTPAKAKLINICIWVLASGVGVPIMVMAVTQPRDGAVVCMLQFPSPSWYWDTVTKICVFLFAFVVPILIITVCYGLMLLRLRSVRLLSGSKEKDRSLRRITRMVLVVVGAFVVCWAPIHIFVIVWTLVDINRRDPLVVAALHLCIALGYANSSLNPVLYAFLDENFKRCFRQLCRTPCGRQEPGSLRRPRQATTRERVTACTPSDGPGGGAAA", "experiment": "[35S]GTPγS binding assay in NG108-15 cell membranes (delta opioid)", "assay_type": "biochemical", "settings": "NG108-15 cell membranes, agonist-stimulated [35S]GTPγS binding; read-out: DOR GTPγS EC50", "method": "[^35S]GTPγS Binding Assay in NG108-15 Cell Membranes (delta opioid)\nMethods: NG108-15 cell membranes were purchased from Applied Cell Sciences (Rockville, Md.). 8 mg/mL of membrane protein suspended in 10 mM TRIS-HCl pH 7.2, 2 mM EDTA, 10% sucrose. Membranes were maintained at 4-8° C. A 1 mL volume of membranes was added into 10 mL cold binding assay buffer. The assay buffer contained 50 mM Tris, pH 7.6, 5 mM MgCl2, 100 mM NaCl, 1 mM DTT and 1 mM EGTA. The membrane suspension was homogenized twice with a Polytron, and centrifuged at 3000 rpm for 10 min. The supernatant was then centrifuged at 18,000 rpm for 20 min. Ten mL assay buffer was added into the pellet containing tube. The pellet and buffer were mixed with a Polytron.\nIncubation procedure: The pellet membranes (75 μg/mL) were preincubated with SPA (10 mg/mL) at 25° C. for 45 min in the assay buffer. […] GTPγS in the same Tris buffer containing 100 μM GDP in total volume of 200 μL. Increasing concentrations of receptor agonists were used to stimulate [35S]-GTPγS binding. The basal binding was tested in the absence of agonists and non-specific binding was tested in the presence of 10 μM unlabeled GTPγS. The data were analyzed on a Packard Top Count.\n% of Basal=(stimulated−non specific)*100/(basal−non specific). EC50 value values were calculated using GraphPad Prism."}}, "note": "pEC50, pKi: −log10 of the molar value."}
{"molecule": "Oc1cccc2c1Oc1cc(-c3cnc4ccccc4c3)ccc1C2=C1CC2CCC(C1)N2", "note": "[Cpd 109]", "values": [{"measurement": "pEC50", "setting": "[1]", "value": 5.91}, {"measurement": "pKi", "setting": "delta opioid receptor", "value": 8.65}, {"measurement": "pKi", "setting": "mu opioid receptor", "value": 7.51}, {"measurement": "pEC50", "setting": "[2]", "value": 7.03}]}
